Data reported in patent US20150133436A1, “Bromodomain Inhibitors For Treating Autoimmune And Inflammatory Diseases” (GlaxoSmithKline LLC, priority 2009, published 2015).

Assays:
[1] = test system: TNFα; test: Lipopolysaccharide (LPS) stimulated whole blood measuring TNFα levels assay; type: cell-based; details: LPS 200 ng/ml, 24 hours, read-out: pIC50, TNFα levels in LPS stimulated whole blood (converted)
Description: Activation of monocytic cells by agonists of toll-like receptors such as bacterial lipopolysaccharide (LPS) results in production of key inflammatory mediators including TNFα. Such pathways are widely considered to be central to the pathophysiology of a range of auto-immune and inflammatory disorders.
After further incubation for 24 hours at 37 degrees, 140 ul of PBS are added to each well. The plates are sealed, shaken for 10 minutes and then centrifuged (2500 rpm×10 min). 100 ul of the supernatant are removed and TNFα levels assayed by immunoassay (typically by MesoScale Discovery technology) either immediately or following storage at −20 degrees. Dose response curves for each compound was generated from the data and an IC50 value was calculated.

[2] = test system: Balb/c male mice given a lethal dose of LPS; test: In vivo mouse endotoxemia model; details: 15 mg/kg LPS i.p., compound 10 mg/kg intravenously ninety minutes later; for Numbers of animals surviving at 4 days (summed across multiple repeat experiments): survivors/total
Description: High doses of Endotoxin (bacterial lipopolysaccharide) administered to animals produce a profound shock syndrome including a strong inflammatory response, dysregulation of cardiovascular function, organ failure and ultimately mortality. This pattern of response is very similar to human sepsis and septic shock, where the body's response to a significant bacterial infection can be similarly life threatening.
To test the compounds for use in the invention groups of eight Balb/c male mice were given a lethal dose of 15 mg/kg LPS by intraperitoneal injection. Ninety minutes later, animals were dosed intravenously with vehicle (20% cyclodextrin 1% ethanol in apyrogen water) or compound (10 mg/kg). The survival of animals was monitored at 4 days.

melting point | SMILES | IC50 [1] | Animals surviving at 4 days, percent [2] | Numbers of animals surviving at 4 days (summed across multiple repeat experiments) [2]
 | CC(=O)N1c2ccc(-c3ccc(C(=O)O)cc3)cc2[C@H](Nc2ccc(Cl)cc2)C[C@@H]1C [Example 5, 4-{(2S,4R)-1-acetyl-4-[(4-chlorophenyl)amino]-2-methyl-1,2,3,4-tetrahydro-6-quinolinyl}benzoic acid] | ≤ 1000 nM | (58%) | 14/24
 | COc1cc2c(cc1-c1c(C)noc1C)ncc1[nH]c(=O)n([C@H](C)c3ccccn3)c12 [Example 3, 7-(3,5-dimethyl-4-isoxazolyl)-8-(methoxy)-1-[(1R)-1-(2-pyridinyl)ethyl]-1,3-dihydro-2H-imidazo[4,5-c]quinolin-2-one] | ≤ 1000 nM | (83%) | 55/66
 | CNCc1ccc(-c2ccc3c(c2)[C@H](NC(=O)OC(C)C)C[C@H](C)N3C(C)=O)cc1 [Example 1, 1-methylethyl ((2S,4R)-1-acetyl-2-methyl-6-{4-[(methylamino)methyl]phenyl}-1,2,3,4-tetrahydro-4-quinolinyl)carbamate] | ≤ 1000 nM |  | 
 | COc1cc2c(cc1-c1c(C)noc1C)ncc1nc(C3CCOCC3)n([C@H](C)c3ccccc3)c12 [Example 4, 7-(3,5-dimethyl-4-isoxazolyl)-8-(methoxy)-1-[(1R)-1-phenylethyl]-2-(tetrahydro-2H-pyran-4-yl)-1H-imidazo[4,5-c]quinoline] | ≤ 1000 nM | (38%) | 9/24
> 260 °C | Cc1nnc2c(NC(N)=O)cc3cc(-c4ccc(CN5CCCCC5)cc4)ccc3n12 [Example 6, N-{1-methyl-7-[4-(1-piperidinylmethyl)phenyl][1,2,4]triazolo[4,3-a]quinolin-4-yl}urea] | ≤ 1000 nM |  | 
